Data taken from patent publication US20230255953A1, “USE OF ROLUPERIDONE IN PREVENTING RELAPSE IN SCHIZOPHRENIA PATIENTS” (Minerva Neurosciences, Inc., priority 2022, published 2023).

Experiments:
[1] = system: patients with negative symptoms of schizophrenia; test: Study #1 (MIN-101C03): rate of relapse; format: in vivo, human; details: for Rate of relapse (%) / Rate of relapse (number of patients): DB period, MIN-101C03
Method: “Time to relapse” in the DB period is defined as the number of days from Day 1 to the date of early trial termination due to relapse. […] Treatment differences in time to relapse in the DB period were analyzed using a Cox-regression model with treatment group and Baseline PANSS total score as covariates. For the analysis of the OL period, this analysis was repeated to analyze treatment differences in time to relapse in the study. For the OL period analysis, patients who were not observed to relapse in the study were censored on the date on which they ended the study. Kaplan-Meier plots of time to relapse in the DB period, OL period, and in the study were generated.
In some embodiments, for any of the methods disclosed herein, a relapse refers to a patient who is terminated early during treatment (or a study trial) due to worsening of psychosis or an adverse event or generalized symptom in Table 1.
Phase 2b Study #1 (also referred to herein as “MIN-101C03”) was a Phase 2b, double-blind (“DB”), placebo-controlled, randomized, multicenter 12-week study to evaluate the efficacy, safety, and tolerability of Roluperidone in patients ≥18 years to ≤60 years with negative symptoms of schizophrenia, followed by a 24-week open-label (“OL”) extension. The primary objective of the study was to evaluate the efficacy of Roluperidone compared to placebo in improving the negative symptoms of schizophrenia as measured by the change from Baseline in the PANSS negative factor score of the PSM (“PANSS PSM”) over 12 weeks of treatment.
The study consisted of a pretreatment screening period of up to 28 days (including washout), a 12-week, DB, placebo-controlled period, and a 24-week OL period. Eligible patients (who were symptomatically stable for at least 3 months and had scores of at least 20 on the PANSS negative subscale score) were randomized in a 1:1:1 ratio to receive oral Roluperidone (a modified-release, “MR”, formulation) 32 mg QD, Roluperidone 64 mg QD, or placebo for 12 weeks. […] During the 24-week, OL treatment extension period, patients who were initially randomized to Roluperidone 32 mg or 64 mg continued on the same dose, while patients who were initially randomized to placebo crossed over to Roluperidone 32 mg or 64 mg in a 1:1 ratio.

[2] = system: patients with negative symptoms of schizophrenia; test: Study #2 (MIN-101C07): Personal and Social Performance (PSP); format: in vivo, human; parameters: key to PSP total score, LS mean difference vs placebo in change from Baseline / Mean change in PSP Total score from Active Baseline / Change from Baseline LS Mean: PSP Total Score (ITT) / Change from Baseline LS Mean: PSP Total Score (mITT): PSP Total score points (1–100 scale, higher = better functioning); details: for Change from Baseline LS Mean: PSP Total Score (ITT) / Change from Baseline LS Mean: PSP domain Disturbing and Aggressive Behaviors / Change from Baseline LS Mean: PSP domain Personal and Social Relationships / Change from Baseline LS Mean: PSP domain Self-Care / Change from Baseline LS Mean: PSP domain Socially Useful Activities / Effect Size (Cohen's d) vs Placebo: PSP Total Score (ITT) / Effect Size (Cohen's d) vs Placebo: PSP domain Disturbing and Aggressive Behaviors / Effect Size (Cohen's d) vs Placebo: PSP domain Personal and Social Relationships / Effect Size (Cohen's d) vs Placebo: PSP domain Self-Care / Effect Size (Cohen's d) vs Placebo: PSP domain Socially Useful Activities: ITT; for Mean change in PSP Total score from Active Baseline: Week 52, OL
Excerpt: The PSP is a validated clinician-rated scale intended to reflect real-life situations that measures personal and social functioning in 4 domains: (a) socially useful activities, (b) personal and social relationships, (c) self-care, and (d) disturbing and aggressive behaviors. The score is based on the assessment of a patient's performance in the 4 domains. The PSP Total score is a single measurement of functioning ranging from 1 to 100, where a higher score represents better functioning. A score of 91 to 100 indicates excellent functioning in all 4 main areas; the patient is held in high consideration for their good qualities, copes adequately with life problems, and is involved in a wide range of interests and activities. A score of 1 to 10 indicates a lack of autonomy in basic functioning with extreme behaviors but without survival risk (score 6 to 10) or with survival risk (score 1 to 5). […] Review of the relevant scientific literature and the analysis of the psychometric properties of the 4 domains that result in the generation of the PSP Total score were supportive of the appropriateness and cross-cultural applicability of the use of the PSP in drug development for the indication of negative symptoms of schizophrenia The PSP was assessed at the timepoints described in Table 6. The changes from Baseline in the PSP Total score and individual domain scores after 12 weeks of treatment were exploratory efficacy endpoints in Study MIN-101C03, and the Total score was the key secondary efficacy endpoint and the PSP domain scores were exploratory endpoints in Study MIN-101C07.
Study #2 (also referred to as “MIN101C07”) was a Phase 3, randomized, DB, placebo-controlled, parallel-group 12-week study to evaluate the efficacy and safety of Roluperidone in patients ≥18 years to ≤55 years with negative symptoms of schizophrenia, followed by a 40-week OL extension. The study consisted of a pretreatment screening period of up to 28 days (including an antipsychotic medication washout period), a 12-week, DB, placebo-controlled period, and a 40-week OL period. Eligible patients (with moderate to severe negative symptoms of schizophrenia and stable positive symptoms but without severe symptoms of suspiciousness, agitation, hostility, uncooperativeness, or poor impulse control) were randomized 1:1:1 to receive Roluperidone 32 mg QD, Roluperidone 64 mg QD (GR01/B formulation, see U.S. Pat. No. 11,464,744), or placebo, orally, for 12 weeks. […] During the 40-week OL treatment extension, patients who were initially randomized to Roluperidone 32 mg or 64 mg continued treatment with the same dose, while patients who were initially randomized to placebo crossed over to Roluperidone 32 mg or 64 mg in a 1:1 ratio.

1H-Isoindol-1-one,2-[ [1-[2-(4-fluorophenyl)-2-oxoethyl]-4-piperidinyl]methyl]-2,3-dihydro-, hydrochloride, hydrate (1:1:2) [Roluperidone]
Rate of relapse (%) ([1]; 32 mg): 7% | Rate of relapse (number of patients) ([1]; 32 mg): 5 | Rate of relapse (%) ([1]; 64 mg): 9% | Rate of relapse (number of patients) ([1]; 64 mg): 7 | Relapse by study phase ([1]; Study #1 (n = 244), all subjects, Double-blind (12-weeks)): 11.5% | Relapse overall (discontinued because of positive symptoms worsening) ([1]; Study #1 (n = 244), Overall (over 36 weeks)): 15.2% | Relapse by study phase ([1]; Study #1, Open-label (over 24 weeks)): 6% | Effect Size (Cohen's w) vs Placebo: 7-Point improvement in PSP Total Score responders ([2]; 32 mg QD, Week 12 DB): 0.03 | Effect Size (Cohen's w) vs Placebo: 10-Point improvement in PSP Total Score responders ([2]; 32 mg QD, Week 12 DB): 0.01 | Number of Patients with 7-Point improvement in PSP Total Score at Week 12 ([2]; 32 mg QD, Week 12 DB): 37/116 | Number of Patients with 10-Point improvement in PSP Total Score at Week 12 ([2]; 32 mg QD, Week 12 DB): 26/116 | Patients with 7-Point improvement in PSP Total Score at Week 12 (%) ([2]; 32 mg QD, Week 12 DB): (32%) | Patients with 10-Point improvement in PSP Total Score at Week 12 (%) ([2]; 32 mg QD, Week 12 DB): (22%) | Change from Baseline LS Mean: PSP Total Score (ITT) ([2]; 32 mg QD, Week 12 DB): 4.5 | Change from Baseline LS Mean: PSP domain Disturbing and Aggressive Behaviors ([2]; 32 mg QD, Week 12 DB): 0.0 | Change from Baseline LS Mean: PSP domain Personal and Social Relationships ([2]; 32 mg QD, Week 12 DB): −0.4 | Change from Baseline LS Mean: PSP domain Self-Care ([2]; 32 mg QD, Week 12 DB): −0.4 | Change from Baseline LS Mean: PSP domain Socially Useful Activities ([2]; 32 mg QD, Week 12 DB): −0.3 | Effect Size (Cohen's d) vs Placebo: PSP Total Score (ITT) ([2]; 32 mg QD, Week 12 DB): 0.07 | Effect Size (Cohen's d) vs Placebo: PSP domain Disturbing and Aggressive Behaviors ([2]; 32 mg QD, Week 12 DB): 0.00 | Effect Size (Cohen's d) vs Placebo: PSP domain Personal and Social Relationships ([2]; 32 mg QD, Week 12 DB): 0.15 | Effect Size (Cohen's d) vs Placebo: PSP domain Self-Care ([2]; 32 mg QD, Week 12 DB): 0.15 | Effect Size (Cohen's d) vs Placebo: PSP domain Socially Useful Activities ([2]; 32 mg QD, Week 12 DB): 0.02 | Change from Baseline LS Mean: PSP Total Score (mITT) ([2]; 32 mg QD, Week 12 DB): 4.4 | Effect Size (Cohen's d) vs Placebo: PSP Total Score (mITT) ([2]; 32 mg QD, Week 12 DB): 0.07 | Effect Size (Cohen's w) vs Placebo: 7-Point improvement in PSP Total Score responders ([2]; 64 mg QD, Week 12 DB): 0.13 | Effect Size (Cohen's w) vs Placebo: 10-Point improvement in PSP Total Score responders ([2]; 64 mg QD, Week 12 DB): 0.10 | Number of Patients with 7-Point improvement in PSP Total Score at Week 12 ([2]; 64 mg QD, Week 12 DB): 50/122 | Number of Patients with 10-Point improvement in PSP Total Score at Week 12 ([2]; 64 mg QD, Week 12 DB): 37/122 | Change from Baseline LS Mean: PSP Total Score (ITT) ([2]; 64 mg QD, Week 12 DB): 6.1 | Change from Baseline LS Mean: PSP domain Disturbing and Aggressive Behaviors ([2]; 64 mg QD, Week 12 DB): 0.0 | Change from Baseline LS Mean: PSP domain Personal and Social Relationships ([2]; 64 mg QD, Week 12 DB): −0.3 | Change from Baseline LS Mean: PSP domain Self-Care ([2]; 64 mg QD, Week 12 DB): −0.3 | Change from Baseline LS Mean: PSP domain Socially Useful Activities ([2]; 64 mg QD, Week 12 DB): −0.4 | Effect Size (Cohen's d) vs Placebo: PSP Total Score (ITT) ([2]; 64 mg QD, Week 12 DB): 0.27 | Effect Size (Cohen's d) vs Placebo: PSP domain Disturbing and Aggressive Behaviors ([2]; 64 mg QD, Week 12 DB): −0.07 | Effect Size (Cohen's d) vs Placebo: PSP domain Personal and Social Relationships ([2]; 64 mg QD, Week 12 DB): 0.00 | Effect Size (Cohen's d) vs Placebo: PSP domain Self-Care ([2]; 64 mg QD, Week 12 DB): 0.04 | Effect Size (Cohen's d) vs Placebo: PSP domain Socially Useful Activities ([2]; 64 mg QD, Week 12 DB): 0.18 | Change from Baseline LS Mean: PSP Total Score (mITT) ([2]; 64 mg QD, Week 12 DB): 6.2 | Effect Size (Cohen's d) vs Placebo: PSP Total Score (mITT) ([2]; 64 mg QD, Week 12 DB): 0.29 | PSP total score, LS mean difference vs placebo in change from Baseline ([2]; 64 mg, Week 12, ITT): 2.2 | PSP Total score, course in OL period ([2]; OL period): continued improvement was seen | Mean change in PSP Total score from Active Baseline ([2]; placebo to 32 mg group): 11.7 | Mean change in PSP Total score from Active Baseline ([2]; placebo to 64 mg group): 11.8
